Data as given in ChEMBL document CHEMBL1151563, “Synthesis of sialic acid-lipid conjugates and their neuritogenic effects on N1E.115 neuroblastoma cells” (1995).

Columns and labels:
N1E-115 [1] = experiment: Effect of compound on neurite outgrowth by measuring presence of cytoskeletal component in neurofilament (NF) ELISA assay at 1 uM; value ranges from 95-105; type: functional, Mus musculus
N1E-115 [2] = experiment: Effect of compound on neurite outgrowth by measuring presence of cytoskeletal component in neurofilament (NF) ELISA assay at 3 uM; value ranges from 75-85; type: functional, Mus musculus
N1E-115 [3] = experiment: In neutral red (NR) assay the cell number relative to control was determined at 1 uM; value ranges from 95-105; type: functional, Mus musculus
N1E-115 [4] = experiment: In neutral red (NR) assay the cell number relative to control was determined at 3 uM; value ranges from 65-75; type: functional, Mus musculus
N1E-115 [5] = experiment: Neuritogenic activity of compound was determined at 1 uM; value ranges from 95-105; type: functional, Mus musculus
N1E-115 [6] = experiment: Neuritogenic activity of compound was determined at 3 uM; value ranges from 105-115; type: functional, Mus musculus
[7] = NF/NR ratio is average amount of neurofilament per cell was determined at 1 uM; value ranges from 95-105; type: functional
[8] = NF/NR ratio is average amount of neurofilament per cell was determined at 3 uM; value ranges from 105-115; type: functional
N1E-115 [9] = experiment: Effect of compound on neurite outgrowth by measuring presence of cytoskeletal component in neurofilament (NF) ELISA assay at 3 uM; value ranges from 95-105; type: functional, Mus musculus
N1E-115 [10] = experiment: In neutral red (NR) assay the cell number relative to control was determined at 1 uM; value ranges from 75-85; type: functional, Mus musculus
N1E-115 [11] = experiment: In neutral red (NR) assay the cell number relative to control was determined at 3 uM; value ranges from 75-85; type: functional, Mus musculus
N1E-115 [12] = experiment: Neuritogenic activity of compound was determined at 1 uM; value ranges from 105-115; type: functional, Mus musculus
N1E-115 [13] = experiment: Neuritogenic activity of compound was determined at 3 uM; value ranges from 115-125; type: functional, Mus musculus
[14] = NF/NR ratio is average amount of neurofilament per cell was determined at 1 uM; value ranges from 105-115; type: functional
[15] = NF/NR ratio is average amount of neurofilament per cell was determined at 3 uM; value ranges from 115-125; type: functional
N1E-115 [16] = experiment: Neuritogenic activity of compound was determined at 3 uM; value ranges from 125-135; type: functional, Mus musculus
[17] = NF/NR ratio is average amount of neurofilament per cell was determined at 3 uM; value ranges from 125-135; type: functional
N1E-115 [18] = experiment: Neuritogenic activity of compound was determined at 3 uM; value ranges from 95-105; type: functional, Mus musculus
[19] = NF/NR ratio is average amount of neurofilament per cell was determined at 3 uM; value ranges from 95-105; type: functional

Structure (SMILES) | Activity (N1E-115 [1]) [%] | Activity (N1E-115 [2]) [%] | Activity (N1E-115 [3]) [%] | Activity (N1E-115 [4]) [%] | Activity (N1E-115 [5]) [%] | Activity (N1E-115 [6]) [%] | Ratio [7] | Ratio [8] | Activity (N1E-115 [9]) [%] | Activity (N1E-115 [10]) [%] | Activity (N1E-115 [11]) [%] | Activity (N1E-115 [12]) [%] | Activity (N1E-115 [13]) [%] | Ratio [14] | Ratio [15] | Activity (N1E-115 [16]) [%] | Ratio [17] | Activity (N1E-115 [18]) [%] | Ratio [19]
CC(=O)NC1C(O)CC(OC2CC[C@@]3(C)C(=CCC4[C@@H]5CC[C@H]([C@@H](C)CCCC(C)C)[C@@]5(C)CC[C@@H]43)C2)(C(=O)[O-])OC1[C@@H](O)[C@H](O)CO.[Na+] (some centres undefined) | 95 | 75 | 95 | 65 | 95 | 105 | 95 | 105 | – | – | – | – | – | – | – | – | – | – | –
CCCCCCCCCCCCCCCCOCOCCCO[C@]1(C(=O)O)C[C@@H](O)[C@@H](NC(C)=O)C([C@@H](O)[C@H](O)CO)O1 (some centres undefined) | 95 | – | 95 | – | 95 | 105 | 95 | 105 | 95 | – | – | – | – | – | – | – | – | – | –
CC(=O)NC1C(O)CC(OCCCOCOC2CC[C@@]3(C)C(=CCC4[C@@H]5CC[C@H]([C@@H](C)CCCC(C)C)[C@@]5(C)CC[C@@H]43)C2)(C(=O)[O-])OC1[C@@H](O)[C@H](O)CO.[Na+] (some centres undefined) | 95 | – | – | – | – | – | – | – | 95 | 75 | 75 | 105 | 115 | 105 | 115 | – | – | – | –
CCCCCCCCCCCCCCCCOC1(C(=O)[O-])CC(O)C(NC(C)=O)C([C@@H](O)[C@H](O)CO)O1.[Na+] (some centres undefined) | 95 | – | – | – | – | 105 | – | 105 | 95 | 75 | 75 | 105 | – | 105 | – | – | – | – | –
CC(=O)NC1C(O)CC(OCCCOCOCC(COCOCCCOC2(C(=O)[O-])CC(O)C(NC(C)=O)C([C@@H](O)[C@H](O)CO)O2)(COCOCCCOC2(C(=O)[O-])CC(O)C(NC(C)=O)C([C@@H](O)[C@H](O)CO)O2)CO[C@H]2CCC3(C)C(=CCC4[C@@H]3CCC3(C)[C@@H](C(C)CCCC(C)C)CC[C@@H]43)C2)(C(=O)[O-])OC1[C@@H](O)[C@H](O)CO.[Na+].[Na+].[Na+] (some centres undefined) | 95 | – | – | – | – | – | – | – | 95 | – | 85 | 105 | – | 105 | – | 125 | 125 | – | –
CC(C)CCC[C@@H](C)[C@H]1CCC2C3CC=C4CC(C(C(=O)O)C(=O)O)CC[C@]4(C)C3CC[C@@]21C (some centres undefined) | 95 | – | – | – | 95 | – | 95 | – | 95 | – | – | – | – | – | – | – | – | 95 | 95
